Where a name gives a salt, the structure may show the parent alone. Some results are limits rather than exact numbers.

The experiment deals with T1, rat GABAA α2β2γ2 Receptors (Rattus norvegicus, UniProt P23576).
T1 construct: expressed in transfected cells; pIRES Neo2 / Hygro2 / Puro2 vectors
T1 sequence (P23576 29-451): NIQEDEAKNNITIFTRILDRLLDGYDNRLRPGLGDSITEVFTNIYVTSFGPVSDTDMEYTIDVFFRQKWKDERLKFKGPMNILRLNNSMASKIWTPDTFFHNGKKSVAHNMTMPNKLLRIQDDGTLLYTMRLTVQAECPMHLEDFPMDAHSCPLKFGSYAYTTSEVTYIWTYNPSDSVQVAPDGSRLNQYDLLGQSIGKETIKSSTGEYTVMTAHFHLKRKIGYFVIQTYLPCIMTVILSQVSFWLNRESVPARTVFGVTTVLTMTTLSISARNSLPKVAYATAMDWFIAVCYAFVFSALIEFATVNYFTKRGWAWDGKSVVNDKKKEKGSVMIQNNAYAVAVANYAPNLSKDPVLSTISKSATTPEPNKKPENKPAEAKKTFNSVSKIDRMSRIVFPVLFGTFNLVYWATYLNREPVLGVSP
T1 sequence (P63138 25-474 partner limits assumed): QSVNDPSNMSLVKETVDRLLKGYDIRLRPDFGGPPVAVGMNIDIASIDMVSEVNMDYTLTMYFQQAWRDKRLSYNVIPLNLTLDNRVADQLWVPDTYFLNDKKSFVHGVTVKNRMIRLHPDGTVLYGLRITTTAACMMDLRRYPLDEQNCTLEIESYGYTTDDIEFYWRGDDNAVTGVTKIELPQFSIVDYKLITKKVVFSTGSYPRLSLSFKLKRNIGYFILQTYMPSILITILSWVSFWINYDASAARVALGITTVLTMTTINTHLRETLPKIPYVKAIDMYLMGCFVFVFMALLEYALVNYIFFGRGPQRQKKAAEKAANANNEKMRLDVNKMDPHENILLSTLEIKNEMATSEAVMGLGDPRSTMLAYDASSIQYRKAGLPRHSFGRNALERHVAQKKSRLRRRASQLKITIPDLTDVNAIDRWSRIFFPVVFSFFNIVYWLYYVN
T1 sequence (P18508 39-466 partner): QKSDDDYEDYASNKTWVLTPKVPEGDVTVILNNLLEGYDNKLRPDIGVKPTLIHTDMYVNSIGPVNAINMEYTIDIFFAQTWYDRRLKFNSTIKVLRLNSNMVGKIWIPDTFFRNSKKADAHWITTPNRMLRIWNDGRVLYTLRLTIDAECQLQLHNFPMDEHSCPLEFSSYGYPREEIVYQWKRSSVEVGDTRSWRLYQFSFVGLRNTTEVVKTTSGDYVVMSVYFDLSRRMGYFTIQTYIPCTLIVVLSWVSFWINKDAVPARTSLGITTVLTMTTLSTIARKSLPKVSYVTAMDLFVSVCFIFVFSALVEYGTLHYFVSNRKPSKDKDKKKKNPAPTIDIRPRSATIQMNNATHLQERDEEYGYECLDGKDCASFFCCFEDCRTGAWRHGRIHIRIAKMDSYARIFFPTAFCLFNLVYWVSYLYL
Briefly: PatchXpress 7000A automated parallel patch-clamp: potentiation of GABA EC20 current in HEK293 cells. Format: cell-based. The following applies: percent increase in mean GABA EC20 current response; HEK293 cells stably expressing rat GABAA α2β2γ2; voltage-clamped at −60 mV; read-out: GABAA α2 EP EMAX (%). On the procedure:
Cell Line Generation and Transient Expression. In order to generate stable clonal lines expressing GABAA configurations containing α2β2γ2 subunits, HEK293 cells were transfected with 2 μg of the subunit, using the Invitrogen Lipofectamine PLUS protocol. The following DNA and vector were used for the stable transfection: α2 subunits in pIRES Neo2, β2 subunit in pIRES Hygro2, and a γ2 subunit in pIRES Puro2. Transfectants were selected with G418, Hygromycin B, and Puromycin antibiotics and cloned by limiting dilution. For transient expression, transfections were performed using the Amaxa transfection protocol and 2 μg DNA of the GABAA receptor subunit using Amaxa transfection protocol. Cells were used for experiments 24-72 hrs post transfection.
PatchXpress® 7000A Automated Parallel Patch-Clamp System. HEK293 cells stably expressing recombinant the rat GABAA/α2β2γ2 configuration were harvested by a single DPBS wash followed by 0.025% Trypsin-EDTA treatment for one minute at room temperature. A 6-ml cell suspension (1.7×10^5 cells/ml) was centrifuged at 500 rpm for 60 s. The cell pellet was gently agitated, suspended in 150 μl extracellular saline buffer, and transferred to a 1.5-ml tube.
After manually placing the AVIVA Biosciences SealChip 16™ in the holder of the PatchXpress®, the SealChip16™ was automatically prepared for application of the cells. Intracellular solution containing (in mM) CsCl, 135; EGTA, 11; MgCl2, 1; HEPES, 10; ATP, 5; GTP, 0.3 (pH 7.3 with CsOH, 290-300 mOsmol) was injected into the bottom of each chamber, and extracellular solution containing (in mM) NaCl, 140; KCl, 4; CaCl2, 1.8; MgCl2, 1; glucose, 10; HEPES, 10; ATP-K2, 5 (pH 7.4 with NaOH 305-310 mOsmol) was perfused into the top of the chambers through a 16-nozzle wash station. Throughout this period, the pressure controller maintained a positive pressure (+10 mmHg) from the intracellular side to keep the hole free of debris. Seal formation was achieved by a ramp increase in negative pressure from 0 to −35 mmHg at a rate of −3.5 mmHg/s every 10 s until a giga ohm seal was obtained and verified for 30 s.
Compounds were prepared from fresh DMSO stock and were transferred to a 96-well disposable glass insert compound plate for placement in the PatchXpress®. A full 10 point concentration-response curve for GABA was obtained for the GABA receptor cell line, from which an EC20 was estimated. Test compounds were assayed for their ability to potentiate the current response by an EC20 concentration of GABA. Each experiment began by two consecutive applications of GABA EC20 alone. Following formation of a giga-ohm seal, patch chambers were perfused with extracellular saline for 60 s to remove excess cells from the well. Cells were then voltage-clamped to −60 mV for the duration of the experiment. After 60 s, 30 μl (10 μl/s over 3 s) of GABA EC20 concentration, which elicited a GABA receptor-mediated inward Cl^− current generally in the order of 200-300 pA in peak amplitude, was added to each chamber. The GABA EC20 concentration was then washed out of the recording chamber after 5 s and washing with extracellular saline was continued for 60 s. After another 60 s, a second GABA EC20 concentration was applied under the same paradigm. […] Following the second GABA EC20 application, the lowest concentration of test compound in the presence of the GABA EC20 concentration was similarly applied. Ascending concentrations of the test compound were applied successively to an individual well in the presence of the GABA EC20 concentration.
Only cells meeting strict predetermined patch-clamp QC parameters, including seal resistance, membrane resistance, and holding current were included in data analysis. GABA current responses in the presence of test compound were measured and expressed as the mean of the initial control GABA EC20 current responses. The peak current amplitude was measured using DataXpress/pCLAMP9 (Axon Instruments). Linear leak subtraction was performed off-line. […]
For orientation: In patch-clamp work, channel activity is measured electrically.
As for `C#Cc1ccc2c(c1)C(c1ccccc1)=NCc1c(C(=O)N(CC)CC)ncn1-2` [Example 1, N,N-Diethyl-8-ethynyl-6-phenyl-4H-benzo[f]imidazo[1,5-a][1,4]diazepine-3-carboxamide], the maximal effect (Emax) (as a rule, the maximal effect, on the per cent scale that the assay sets) was in the range of 400 to 500%.
With `C#Cc1ccc2c(c1)C(c1ccccc1)=NCc1c(C(=O)NCC)ncn1-2` [Example 2, N-Ethyl-8-ethynyl-6-phenyl-4H-benzo[f]imidazo[1,5-a][1,4]diazepine-3-carboxamide dihydrochloride] the figure was 300 to 400%; with `C#Cc1ccc2c(c1)C(c1ccccc1)=NCc1c(C(N)=O)ncn1-2` [Example 3, 8-Ethynyl-6-phenyl-4H-benzo[f]imidazo[1,5-a][1,4]diazepine-3-carboxamide], 300 to 400%.
Regarding `C#Cc1ccc2c(c1)C(c1ccccc1)=NCc1c(C(=O)NCCOC)ncn1-2` [Example 4, 8-Ethynyl-N-(2-methoxyethyl)-6-phenyl-4H-benzo[f]imidazo[1,5-a][1,4]diazepine-3-carboxamide Dihydrochloride], the maximal effect (Emax) was greater than 500%.
Turning to `C#Cc1ccc2c(c1)C(c1ccccc1)=NCc1c(C(=O)NCCO)ncn1-2` [Example 5, 8-Ethynyl-N-(2-hydroxyethyl)-6-phenyl-4H-benzo[f]imidazo[1,5-a][1,4]diazepine-3-carboxamide], the maximal response (Emax) was in the range of 400 to 500%.
Consider `C#Cc1ccc2c(c1)C(c1ccccc1)=NCc1c(C(=O)NCCN(C)C)ncn1-2` [Example 6, N-(2-(Dimethylamino)ethyl)-8-ethynyl-6-phenyl-4H-benzo[f]imidazo[1,5-a][1,4]diazepine-3-carboxamide], for which the maximal effect (Emax) fell in the range of 300 to 400%.
With `C#Cc1ccc2c(c1)C(c1ccccc1)=NCc1c(C(=O)NCC(=O)OCC)ncn1-2` [Example 7, Ethyl 2-(8-ethynyl-6-phenyl-4H-benzo[f]imidazo[1,5-a][1,4]diazepine-3-carboxamido)acetate], the Emax fell in the range of 300 to 400%.
Under `C#Cc1ccc2c(c1)C(c1ccccc1)=NCc1c(C(=O)N3CCN(C)CC3)ncn1-2` [Example 8, (8-Ethynyl-6-phenyl-4H-benzo[f]imidazo[1,5-a][1,4]diazepin-3-yl)(4-methylpiperazin-1-yl)methanone] stands 300 to 400%.
Turning to `C#Cc1ccc2c(c1)C(c1ccccc1)=NCc1c(C(=O)N3CCOCC3)ncn1-2` [Example 9], the maximal response (Emax) lay within 400 to 500%.
In the case of `C#Cc1ccc2c(c1)C(c1ccccc1)=NCc1c(C(=O)NC3CC3)ncn1-2` [Example 10, N-Cyclopropyl-8-ethynyl-6-phenyl-4H-benzo[f]imidazo[1,5-a][1,4]diazepine-3-carboxamide], the Emax was greater than 500%.
With `C#Cc1ccc2c(c1)C(c1ccccc1)=NCc1c(C(=O)NCCOCC)ncn1-2` [Example 12, N-(2-Ethoxyethyl)-8-ethynyl-6-phenyl-4H-benzo[f]imidazo[1,5-a][1,4]diazepine-3-carboxamide dihydrochloride] the figure was 300 to 400%; with `C#Cc1ccc2c(c1)C(c1ccccc1)=NCc1c(C(=O)NC(CC)COC)ncn1-2` (stereo not drawn) [Example 13, 8-Ethynyl-N-(1-methoxybutan-2-yl)-6-phenyl-4H-benzo[f]imidazo[1,5-a][1,4]diazepine-3-carboxamide], 200 to 300%.
With `C#Cc1ccc2c(c1)C(c1ccccc1)=NCc1c(C(=O)N[C@@H](COC)C3CC3)ncn1-2` [Example 14, N—((R)-1-Cyclopropyl-2-methoxyethyl)-8-ethynyl-6-phenyl-4H-benzo[f]imidazo[1,5-a][1,4]diazepine-3-carboxamide] the figure was 200 to 300%; with `C#Cc1ccc2c(c1)C(c1ccccc1)=NCc1c(C(=O)NC(COC)COC)ncn1-2` [Example 15, N-(1,3-Dimethoxypropan-2-yl)-8-ethynyl-6-phenyl-4H-benzo[f]imidazo[1,5-a][1,4]diazepine-3-carboxamide], 200 to 300%.
On to `C#Cc1ccc2c(c1)C(c1ccccc1)=NCc1c(C(=O)N(CCOC)CCOC)ncn1-2` [Example 16, 8-Ethynyl-N,N-bis(2-methoxyethyl)-6-phenyl-4H-benzo[f]imidazo[1,5-a][1,4]diazepine-3-carboxamide], for which the Emax is 200 to 300%.

The record behind these values is patent publication US8119629B2, “Carboxamide GABAA α2 modulators” (Bristol-Meyers Squibb Company, priority 2007, dated 2012).
